In patent publication US20250235545A1, “POLYPEPTIDE CONJUGATE AND USE THEREOF” (SHANGHAI CHIXI BIOMEDICAL TECHNOLOGY CO., LTD, priority 2024, published 2025):
Converted amounts (≈) assume the structure as drawn. Read-outs that look alike come from different tables or passages of the source. Where a SMILES comes first, the peptide text is derived from it. The star is where a group is joined. X2 = CCCCN(CCc1c2c(nc3ccccc13)-c1cc3c(c(=O)n1C2)COC(=O)[C@]3(O)CC)*; X4 = CCCN(CCc1c2c(nc3ccccc13)-c1cc3c(c(=O)n1C2)COC(=O)[C@]3(O)CC)*; X5 = CC[C@@]1(O)C(=O)OCc2c1cc1n(c2=O)Cc2c-1nc1ccccc1c2CCN(CC(C)C)*; Propanoyl(3-maleimido) = O=C1C=CC(=O)N1CCC(=O)*; PEG6 = NCCOCCOCCOCCOCCOCCOCCC(=O)O

Key:
[1] = Tumor homogenate activation efficiency, ovarian cancer tissue (Examples 28, 37); type: in vitro ADME; conditions: pH 5.0, 37° C., 2 h
Method in brief: (§1)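 Each conjugate, dissolved at 1 mg/ml in acidic MES saline (pH 5.0), was exposed to 100 μg homogenate for 2 h at 37° C; released Belotecan was quantified by HPLC peak areas.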

[2] = test system: sarcoma SJSA-1 tumor model
Method in brief: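 Female BALB/c nude mice (6-8 weeks) bearing subcutaneous right-chest SJSA-1 xenografts from 2×10^7 cells were randomized, three per group, once tumors reached at least 100 mm^3. Treatment given once a week for three weeks starting day 1; saline controls.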

[3] = Tumor homogenate activation efficiency, breast cancer tissue (Examples 28, 37); type: in vitro ADME; conditions: pH 5.0, 37° C., 2 h
Method in brief: as §1

[4] = test system: sarcoma SJSA-1 tumor model; assay: Efficacy in animal model of sarcoma SJSA-1, 30 mg/kg once a week for two weeks (Example 40); type: in vivo, BALB/c mice; conditions: for SJSA-1 (sarcoma tissue) mean tumor volume (mm^3) Day 1 / SJSA-1 (sarcoma tissue) mean tumor volume (mm^3) Day 4 / SJSA-1 (sarcoma tissue) mean tumor volume (mm^3) Day 7 / SJSA-1 (sarcoma tissue) mean tumor volume (mm^3) Day 10 / Mouse weight (%) on Day 14 / SJSA-1 (sarcoma tissue) growth rate (%) on Day 14 / SJSA-1 (sarcoma tissue) mean tumor volume (mm^3) Day 14: 30 mg/kg once a week for two weeks
Description: Test objective: To further compare the antitumor efficacy of different polypeptide Linkers in an animal tumor model of sarcoma SJSA-1.
Test drug: Polypeptide conjugate and normal saline control group.
The control group was administered normal saline. Administration was performed once a week for two weeks.

[5] = Tumor homogenate activation efficiency, colorectal cancer tissue (Example 37); type: in vitro ADME; conditions: pH 5.0, 37° C., 2 h; Table 10
Description: Buffer preparation: 50 mM PH buffer (MES), 250 mM NaCl, pH adjusted to 5.0 with 0.5 M of sodium hydroxide.
The polypeptide conjugate was prepared into a 1 mg/ml solution with pH 5.0 buffer, 100 μg of tumor tissue homogenate was added, (the tumor tissue homogenate was the homogenate of tumor tissues prepared with a Jingxin F6/10 handheld homogenizer), and the solution was placed at 37° C. for 2 h. The tumor tissue homogenate could effectively activate the polypeptide conjugate and release Belotecan, and the activation efficiencies of the drugs in tumor tissues were compared by HPLC allowing determination of a decrease in the compounds and an increase in Belotecan:
Release percentage=peak area of Belotecan/total peak area of Belotecan and all other Belotecan-containing compounds

[6] = test system: SJSA-1 (sarcoma tissue); assay: cells; type: cell-based; conditions: for IC50 Sarcoma tissue (SJSA-1): CCK8, 48 h, Table 6
Method in brief: (§2)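 Viability read by CCK8 absorbance at 450 nm (~2 h stain) after 48 h drug treatment at 37° C. of 5,000 cells/well, triplicate wells, in RPMI1640 or DMEM high-glucose medium containing 10% FBS and 1 mM pyruvate. Survival relative to 0.1% DMSO controls gave IC50 values.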

[7] = test system: A2780 (ovarian cancer); assay: cells; type: cell-based; conditions: for IC50 Ovarian cancer tissue (A2780): CCK8, 48 h, Table 6
Method in brief: as §2

[8] = test system: SKBR3 (breast cancer tissue); assay: cells; type: cell-based; conditions: for IC50 Breast cancer tissue (SKBR3): CCK8, 48 h, Table 6
Method in brief: as §2

[9] = test system: A549 (non-small cell lung cancer); assay: cells; type: cell-based; conditions: for IC50 Non-small cell lung cancer tissue (A549): CCK8, 48 h, Table 6
Method in brief: as §2

[10] = test system: colo320 (colorectal cancer tissue); assay: cells; type: cell-based; conditions: CCK8, 48 h; Table 6
Method in brief: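 Colo320 cells, 5,000 per well, exposed to drug concentration series for 48 h at 37 °C, 5% CO2 (0.1% DMSO controls). Viability by CCK8, absorbance at 450 nm after about 2 h. Survival rates and IC50 calculated.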

[11] = Tumor homogenate activation efficiency, sarcoma tissue (Examples 28, 37); type: in vitro ADME; conditions: pH 5.0, 37° C., 2 h
Method in brief: as §1

[12] = 15 mg/kg once a week for three weeks, Table 7
[13] = 45 mg/kg once a week for three weeks, Table 7
[14] = 15 mg/kg once a week for three weeks, Table 2
[15] = 45 mg/kg once a week for three weeks, Table 2

SMILES	Percentage of release efficiency (%) Ovarian cancer tissue (A2780) ([1]; Table 10) [%]	Mouse weight (%) [2, 12]	SJSA-1 (sarcoma tissue) growth rate (%) [2, 12] [%]	SJSA-1 (sarcoma tissue) mean tumor volume (mm^3) [2, 12] [mm^3]	Mouse weight (%) [2, 13]	SJSA-1 (sarcoma tissue) growth rate (%) [2, 13] [%]	SJSA-1 (sarcoma tissue) mean tumor volume (mm^3) [2, 13] [mm^3]	Percentage of release efficiency (%) Breast cancer tissue (SKBR3) ([3]; Table 10) [%]	SJSA-1 (sarcoma tissue) mean tumor volume (mm^3) Day 1 [4] [mm^3]	SJSA-1 (sarcoma tissue) mean tumor volume (mm^3) Day 4 [4] [mm^3]	SJSA-1 (sarcoma tissue) mean tumor volume (mm^3) Day 7 [4] [mm^3]	SJSA-1 (sarcoma tissue) mean tumor volume (mm^3) Day 10 [4] [mm^3]	Mouse weight (%) on Day 14 [4]	SJSA-1 (sarcoma tissue) growth rate (%) on Day 14 [4] [%]	SJSA-1 (sarcoma tissue) mean tumor volume (mm^3) Day 14 [4] [mm^3]	Percentage of release efficiency (%) Colorectal cancer tissue (colo320) [5] [%]	IC50 Sarcoma tissue (SJSA-1) [6] [µg/mL]	IC50 Ovarian cancer tissue (A2780) [7] [µg/mL]	IC50 Breast cancer tissue (SKBR3) [8] [µg/mL]	IC50 Non-small cell lung cancer tissue (A549) [9] [µg/mL]	also measured
CC[C@@]1(O)C(=O)OCc2c1cc1n(c2=O)Cc2c-1nc1ccccc1c2CCN(CC(C)C)C(=O)[C@H](CC(C)C)NC(=O)[C@H](CC(N)=O)NC(=O)[C@H](C)NC(=O)[C@H](C)NC(=O)CCOCCOCCOCCOCCOCCOCCNC(=O)CCN1C(=O)C=CC1=O [MI-6PEG-AANL-D5] ({Propanoyl(3-maleimido)-PEG6}-AANL-X5)	74.3	+18%	1069.02	1304.2	+17%	933.13	1165.2	70.2	139.89	429.56	658.17	876.45	−1.1%	979.44	1370.14	69.8	1.58 (≈ 1.21 µM)	1.13 (≈ 0.867 µM)	2.20 (≈ 1.69 µM)	1.34 (≈ 1.03 µM)	IC50 Colorectal cancer tissue (colo320) [10]: 2.42 µg/mL (≈ 1.86 µM); Percentage of release efficiency (%) Sarcoma tissue (SJSA1) ([11]; Table 10): 77.5%
CC[C@@]1(O)C(=O)OCC2=C1C=C1c3nc4ccccc4c(CCN(C(=O)OCc4ccc(NC(=O)[C@H](CC(N)=O)NC(=O)[C@H](C)NC(=O)[C@H](C)NC(=O)CCOCCOCCOCCOCCOCCOCCNC(=O)CCN5C(=O)C=CC5=O)cc4)C(C)C)c3CN1C2 [MI-6PEG-AAN-PAB-Belotecan]									131.25	208.13	554.02	706.21	−6.9%	1005.49	1319.7						Percentage of release efficiency (%) Ovarian cancer tissue (A2780) ([1]; Table 5): 75.3%; Mouse weight (%) [2, 14]: +6%; SJSA-1 (sarcoma tissue) mean tumor volume (mm^3) [2, 14]: 1357 mm^3; SJSA-1 (sarcoma) Growth rate (%) [2, 14]: 1174.19%; Mouse weight (%) [2, 15]: −5%; SJSA-1 (sarcoma tissue) mean tumor volume (mm^3) [2, 15]: 873.5 mm^3; SJSA-1 (sarcoma) Growth rate (%) [2, 15]: 753.02%; Percentage of release efficiency (%) Breast cancer tissue (SKBR3) ([3]; Table 5): 69.4%; tumor suppression effect (in words) ([4]; 30 mg/kg, SJSA-1 model, Example 40): neither MI-6PEG-AAGP-D2 nor MI-6PEG-AAN-PAB-Belotecan had a satisfactory tumor suppression effect; IC50 SJSA-1 (sarcoma tissue) ([6]; 48 h): 0.26 µg/mL (≈ 0.198 µM); IC50 A2780 (ovarian cancer) ([7]; 48 h): 0.34 µg/mL (≈ 0.259 µM); IC50 SKBR3 (breast cancer tissue) ([8]; 48 h): 0.40 µg/mL (≈ 0.305 µM); IC50 A549 (non-small cell lung cancer) ([9]; 48 h): 0.39 µg/mL (≈ 0.297 µM); Percentage of release efficiency (%) Sarcoma tissue (SJSA1) ([11]; Table 5): 78.5%
CCCN(CCc1c2c(nc3ccccc13)-c1cc3c(c(=O)n1C2)COC(=O)[C@]3(O)CC)C(=O)[C@H](CC(C)C)NC(=O)[C@H](CC(N)=O)NC(=O)[C@H](C)NC(=O)[C@H](C)NC(=O)CCOCCOCCOCCOCCOCCOCCNC(=O)CCN1C(=O)C=CC1=O [MI-6PEG-AANL-D3] ({Propanoyl(3-maleimido)-PEG6}-AANL-X4)	69.5	+21%	1207.54	1521.5	+16%	941.15	1205.8	67.9	137.17	436.65	735.18	1111.34	+4.2%	1316.37	1805.67	71.6	1.52 (≈ 1.18 µM)	1.15 (≈ 0.892 µM)	2.56 (≈ 1.99 µM)	1.87 (≈ 1.45 µM)	IC50 Colorectal cancer tissue (colo320) [10]: 3.28 µg/mL (≈ 2.54 µM); Percentage of release efficiency (%) Sarcoma tissue (SJSA1) ([11]; Table 10): 90%
CCCCN(CCc1c2c(nc3ccccc13)-c1cc3c(c(=O)n1C2)COC(=O)[C@]3(O)CC)C(=O)[C@H](CC(C)C)NC(=O)[C@H](CC(N)=O)NC(=O)[C@H](C)NC(=O)[C@H](C)NC(=O)CCOCCOCCOCCOCCOCCOCCNC(=O)CCN1C(=O)C=CC1=O [MI-6PEG-AANL-D4] ({Propanoyl(3-maleimido)-PEG6}-AANL-X2)	66.7	+19%	1031.84	1289.8	+19%	924.41	1149.5	75.3	142.01	486.37	739.25	1068.21	+2.3%	1137.43	1615.26	76.5	2.94 (≈ 2.26 µM)	2.47 (≈ 1.89 µM)	3.94 (≈ 3.02 µM)	3.72 (≈ 2.85 µM)	IC50 Colorectal cancer tissue (colo320) [10]: 5.40 µg/mL (≈ 4.14 µM); Percentage of release efficiency (%) Sarcoma tissue (SJSA1) ([11]; Table 10): 81.2%
